Measurements as given in ChEMBL document CHEMBL1141168, “Studies toward the pharmacophore of salvinorin A, a potent kappa opioid receptor agonist” (J Med Chem, 2005).
pEC50, pKi: −log10 of the molar value.

What was measured:
[1] = species on record: Rattus norvegicus; assay: Effective concentration of compound against intracellular calcium mobilization in rat; assay type: functional
[2] = species on record: Rattus norvegicus; assay: Emax value against intracellular calcium mobilization in rat; assay type: functional
[3] = biological target: T1, Kappa-type opioid receptor (Rattus norvegicus, UniProt P34975); assay: biochemical; assay type: cell-based, HEK293
Description: Inhibition of [3H]U-69593 binding to rat opioid receptor kappa 1 expressed in HEK 293 cells

[4] = biological target: T1, Kappa-type opioid receptor; assay: Inhibition of [3H]diprenorphine binding to rat opioid receptor kappa 1 expressed in HEK 293 cells; assay type: cell-based, HEK293

T1 sequence (P34975 whole entry): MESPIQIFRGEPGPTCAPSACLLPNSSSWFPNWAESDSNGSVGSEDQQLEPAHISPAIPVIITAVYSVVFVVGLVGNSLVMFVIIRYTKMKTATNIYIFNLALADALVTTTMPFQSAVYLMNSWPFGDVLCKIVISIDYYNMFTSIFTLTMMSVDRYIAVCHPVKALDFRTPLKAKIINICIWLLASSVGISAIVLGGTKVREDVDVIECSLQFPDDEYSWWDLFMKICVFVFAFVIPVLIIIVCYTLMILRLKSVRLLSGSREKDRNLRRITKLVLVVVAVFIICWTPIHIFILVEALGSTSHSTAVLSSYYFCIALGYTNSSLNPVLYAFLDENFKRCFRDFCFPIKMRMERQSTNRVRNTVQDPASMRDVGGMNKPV

Row | SMILES | pEC50 [1] | Emax [2] | pKi [3] | pKi [4]
1 | COC(=O)[C@@H]1C[C@H](OC(C)=O)C(=O)[C@H]2[C@@]1(C)CC[C@H]1C(O)O[C@H](c3ccoc3)C[C@]21C (some centres undefined) | 7.11 | 107% | 7.23 | 
2 | COC(=O)C1=C[C@H](O)[C@H](OC(C)=O)[C@@H]2[C@@]3(C)C[C@@H](c4ccoc4)OC(=O)[C@@H]3CC[C@@]12C |  |  | < 5.00 | 
3 | COC(=O)C1=C[C@H](OC(C)=O)[C@H](OC(C)=O)[C@@H]2[C@@]3(C)C[C@@H](c4ccoc4)OC(=O)[C@@H]3CC[C@@]12C |  |  | 5.99 | 
4 | COC(=O)[C@@H]1C[C@H](OC(C)=O)C(=O)[C@H]2[C@@]1(C)CCC1=CO[C@H](c3ccoc3)C[C@@]12C | 6.65 | 103% | 8.22 | 
5 | COC(=O)[C@@H]1C[C@H](OC=O)C(=O)[C@H]2[C@@]1(C)CC[C@H]1C(=O)O[C@H](c3ccoc3)C[C@]21C | 6.50 | 108% | 7.74 | 
6 | COC(=O)[C@@H]1C[C@H](OC(C)=O)[C@H](O)[C@H]2[C@@]1(C)CC[C@H]1C(=O)O[C@H](c3ccoc3)C[C@]21C [1-ALPHA-HYDROXYSALVINORIN A] |  |  | 5.95 | 
7 | COC(=O)[C@@H]1C[C@H](OC(C)=O)C(=O)[C@H]2[C@@]1(C)CC[C@H]1C(=O)O[C@H](C3CCOC3)C[C@]21C (some centres undefined) | 6.90 | 108% | 6.81 | 
8 | CC(=O)O[C@H]1C[C@@H](CO)[C@]2(C)CC[C@H]3C(=O)O[C@H](c4ccoc4)C[C@]3(C)[C@H]2C1=O | < 5.00 |  | 6.46 | 
9 | COC(=O)[C@@H]1C[C@H](OC(C)=O)C[C@H]2[C@@]1(C)CC[C@H]1C(=O)O[C@H](c3ccoc3)C[C@]21C | 6.85 | 122% | 7.74 | 
10 | COC(=O)[C@@H]1C[C@H](OC(C)=O)C(=O)[C@@H]2[C@@]3(C)C[C@@H](c4ccoc4)OC[C@@H]3CC[C@]21C | 6.65 | 103% | 8.22 | 
11 | COC(=O)[C@@H]1C[C@H](OC(C)=O)C(=O)[C@H]2[C@@]1(C)CC[C@H]1C(=O)O[C@H](c3ccoc3)C[C@]21C [SALVINORIN A] | 7.34 | 100% |  | 
12 | COC(=O)C1=C[C@H](OC(C)=O)[C@H](O)[C@@H]2[C@@]3(C)C[C@@H](c4ccoc4)OC(=O)[C@@H]3CC[C@@]12C |  |  |  | < 5.00
13 | COC(=O)[C@@H]1C[C@H](OC(C)=O)C(=O)[C@@H]2[C@@]3(C)C[C@@H](c4ccoc4)OC(=O)[C@H]3CC[C@]21C [SALVINORIN A (ESTER)] | 6.61 | 78% |  | 
14 | COC(=O)[C@@H]1C[C@H](OC(C)=O)[C@H](OC(C)=O)[C@H]2[C@@]1(C)CC[C@H]1C(=O)O[C@H](c3ccoc3)C[C@]21C |  |  | < 5.00 | 
